According to EP4413976B1, “A NEW VAMOROLONE PREPARATION EXHIBITING IMPROVED SOLUBILITY” (Santhera Pharmaceuticals (Schweiz) AG, priority 2023, dated 2024):

How the values were obtained:
[1] = kinetic solubility in FaSSIF (Pion µDissolution monitor); assay type: physicochemical; details: thermodynamic from solid, FaSSIF pH 6.5, 37° C
Description: SDD prototypes were evaluated for kinetic solubility in FaSSIF (Fasted State Simulated Intestinal Fluid, pH = 6.5) using the Pion µDissolution monitor with a tip path length of 2 mm. Data were collected using AUPro software over a period of 18 hours in 20 mL of each media, heated to 37 ± 2 °C. A stir speed of 250 rpm for the duration of the experiment.

inflammatory states = details: multiple mouse models of inflammatory states, background statement; cited from earlier work
glucocorticoid receptor = target: T1, glucocorticoid receptor (Homo sapiens, UniProt P04150); details: pre-clinical data, background statement; cited from earlier work
T1 sequence (P04150 1-777): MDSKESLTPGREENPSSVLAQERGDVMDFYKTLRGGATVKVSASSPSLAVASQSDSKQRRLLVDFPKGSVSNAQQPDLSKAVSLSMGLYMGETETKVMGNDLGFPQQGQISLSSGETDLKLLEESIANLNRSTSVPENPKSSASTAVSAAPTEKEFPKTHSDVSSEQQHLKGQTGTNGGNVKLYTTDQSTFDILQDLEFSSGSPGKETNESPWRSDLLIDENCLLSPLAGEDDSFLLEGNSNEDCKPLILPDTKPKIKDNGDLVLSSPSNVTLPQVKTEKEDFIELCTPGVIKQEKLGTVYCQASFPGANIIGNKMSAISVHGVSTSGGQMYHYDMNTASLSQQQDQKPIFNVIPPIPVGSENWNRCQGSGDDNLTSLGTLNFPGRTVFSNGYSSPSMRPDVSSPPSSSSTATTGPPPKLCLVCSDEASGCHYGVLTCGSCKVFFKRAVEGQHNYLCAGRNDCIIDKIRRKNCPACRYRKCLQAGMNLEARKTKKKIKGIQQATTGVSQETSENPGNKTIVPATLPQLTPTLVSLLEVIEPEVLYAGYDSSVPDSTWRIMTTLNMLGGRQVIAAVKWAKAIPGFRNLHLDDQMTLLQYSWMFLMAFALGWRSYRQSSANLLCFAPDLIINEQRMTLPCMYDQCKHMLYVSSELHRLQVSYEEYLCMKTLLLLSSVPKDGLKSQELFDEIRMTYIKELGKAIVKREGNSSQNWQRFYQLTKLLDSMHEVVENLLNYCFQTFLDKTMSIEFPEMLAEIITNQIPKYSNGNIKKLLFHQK

[2] = solvent solubility screening of micronized Vamorolone (visual, solvent added in aliquots); assay type: physicochemical; details: for 200 µl / +100 µl: 10 mg Vamorolone; for 200 µl: dissolved after 200 µl; for +100 µl: dissolved after further 100 µl
Description: The solubility of micronized Vamorolone was assessed in several typical organic solvent systems suitable for use in spray drying.
A quantity of 10 mg of Vamorolone was dispensed into a 2 mL HPLC vial. The experimental design was to add the test solvent in aliquots, 200 µl and 100 µl. After each aliquot addition the sample was to be mixed on a vortex mixer for 1 minute and solubility assessed visually. Observations were also made after one hour of solvent addition.

[3] = solubility in aqueous solution at 37°C; assay type: physicochemical
[4] = storage of cryo-milled amorphous Vamorolone; assay type: physicochemical; details: room temperature in a closed container

C[C@@H]1C[C@H]2[C@@H]3CCC4=CC(=O)C=C[C@]4(C)C3=CC[C@]2(C)[C@@]1(O)C(=O)CO [Crystalline API, 17α,21-dihydroxy-16α-methylpregna-1,4,9(11)-triene-3,20-dione]
0.0488 mg/mL: solubility at 12 h ([1]; T=12 hour)
0.0487 mg/mL: solubility at 18 h ([1]; T=18 hour)
0.0489 mg/mL: solubility at 30 min ([1]; T=30 min)
0.0492 mg/mL: solubility at 1 h ([1]; T=1 hour)
0.0464 mg/mL: solubility at 5 min ([1]; T=5 min)
0.049 mg/mL: solubility at 4 h ([1]; T=4 hour)

C[C@@H]1C[C@H]2[C@@H]3CCC4=CC(=O)C=C[C@]4(C)C3=CC[C@]2(C)[C@@]1(O)C(=O)CO [Vamorolone, 17α,21-dihydroxy-16α-methylpregna-1,4,9(11)-triene-3,20-dione]
50 mg/mL: clear solution ([2]; DCM (dichloromethane):methanol (1:1)) | clear solution ([2]; DCM (dichloromethane):methanol (1:3))
Hazy: Observation 1 hour after solubility assessment ([2]; Acetone) | Observation after solubility assessment ([2]; Acetone) | Observation 1 hour after solubility assessment ([2]; Ethanol) | Observation after solubility assessment ([2]; Ethanol) | Observation 1 hour after solubility assessment ([2]; Ethyl Acetate) | Observation after solubility assessment ([2]; Ethyl Acetate) | Observation 1 hour after solubility assessment ([2]; Isopropanol) | Observation after solubility assessment ([2]; Isopropanol) | Observation 1 hour after solubility assessment ([2]; Water) | Observation after solubility assessment ([2]; Water)
Clear: Observation 1 hour after solubility assessment ([2]; DCM) | Observation after solubility assessment ([2]; DCM) | Observation 1 hour after solubility assessment ([2]; DCM:Methanol (1:1)) | Observation after solubility assessment ([2]; DCM:Methanol (1:1)) | Observation 1 hour after solubility assessment ([2]; DCM:Methanol (1:3)) | Observation after solubility assessment ([2]; DCM:Methanol (1:3)) | Observation 1 hour after solubility assessment ([2]; Methanol) | Observation after solubility assessment ([2]; Methanol)
~0.04 mg/mL: solubility [3]
efficacy similar to prednisolone: efficacy (inflammatory states)
✔: 200 µl ([2]; DCM:Methanol (1:1)) | 200 µl ([2]; DCM:Methanol (1:3)) | +100 µl ([2]; DCM) | +100 µl ([2]; Methanol)
×: 200 µl ([2]; Acetone) | +100 µl ([2]; Acetone) | 200 µl ([2]; DCM) | 200 µl ([2]; Ethanol) | +100 µl ([2]; Ethanol) | 200 µl ([2]; Ethyl Acetate) | +100 µl ([2]; Ethyl Acetate) | 200 µl ([2]; Isopropanol) | +100 µl ([2]; Isopropanol) | 200 µl ([2]; Methanol) | 200 µl ([2]; Water) | +100 µl ([2]; Water)
binds potently: binding to the glucocorticoid receptor (glucocorticoid receptor)

C[C@@H]1C[C@H]2[C@@H]3CCC4=CC(=O)C=C[C@]4(C)C3=CC[C@]2(C)[C@@]1(O)C(=O)CO [amorphous Vamorolone, 17α,21-dihydroxy-16α-methylpregna-1,4,9(11)-triene-3,20-dione]
recrystallize within days: physical stability of the amorphous form [4]
